Results reported in the NIST ThermoML archive (doi:10.1016/j.fluid.2019.04.036).

Settings: Liquid, Transpiration method

CCCCN(C=O)CCCC [N,N-dibutylformamide]
Settings	vapor or sublimation pressure [kPa]
293.1 K	0.0026
295.8 K	0.00329
296.9 K	0.00365
298 K	0.004
298.7 K	0.00421
298.9 K	0.00438
299.3 K	0.00469
301.4 K	0.00534
304.5 K	0.00695
304.6 K	0.00705
304.8 K	0.00709
308.3 K	0.0097
308.7 K	0.01006
309.9 K	0.01103
310.7 K	0.01193
311.6 K	0.01265
312.5 K	0.01383
313.3 K	0.01469
314.7 K	0.01666
315.1 K	0.01677
315.3 K	0.01776
318.2 K	0.0217
318.4 K	0.02183
320.5 K	0.0256
321.1 K	0.02589
322.6 K	0.03097
322.8 K	0.03141
323.8 K	0.03251
325.8 K	0.03894
326.8 K	0.04037
329.4 K	0.04901
329.6 K	0.04927
334.7 K	0.0724

CCN(C=O)CC [N,N-diethylformamide]
Settings	vapor or sublimation pressure [kPa]
288.8 K	0.0751
292.2 K	0.0961
295.1 K	0.1173
300.5 K	0.1677
300.7 K	0.169
303.7 K	0.211
305.7 K	0.2482
310.7 K	0.3265
315.7 K	0.4646
320.8 K	0.6274
323.2 K	0.7094
325.8 K	0.8534
330.9 K	1.093
335.9 K	1.479
338.5 K	1.733
340.9 K	1.948
346 K	2.46
348.5 K	2.893
350.9 K	3.209
356.1 K	4.164

CCCN(C=O)CCC [N,N-dipropylformamide]
Settings	vapor or sublimation pressure [kPa]
278.5 K	0.00516
282.4 K	0.00741
283.4 K	0.00814
285.1 K	0.00949
288.2 K	0.01246
290.2 K	0.01527
292.2 K	0.01766
294.8 K	0.02239
295.8 K	0.02392
296.5 K	0.02608
298.4 K	0.03075
299.4 K	0.03131
301.2 K	0.03699
302.9 K	0.04152
305.1 K	0.05251
306.1 K	0.05391
307.2 K	0.05892
308.2 K	0.06219
310.4 K	0.07592
311.3 K	0.08121
313.4 K	0.09479
315.4 K	0.113
316.4 K	0.1145
318.5 K	0.1321
319.4 K	0.1476

CCCCNC=O [N-butylformamide]
Settings	vapor or sublimation pressure [kPa]
297.1 K	0.00293
298.2 K	0.00321
299.3 K	0.00349
301.2 K	0.00422
304.2 K	0.0056
307.2 K	0.00731
310.2 K	0.00912
314.1 K	0.01307
316.2 K	0.01498
317.8 K	0.01763
318.2 K	0.01802
320.2 K	0.02208
323.1 K	0.02695
326.2 K	0.03461
329.1 K	0.04093
331.2 K	0.05017
334.2 K	0.06336
337.1 K	0.07893
340.2 K	0.09365
343.2 K	0.1151
346.2 K	0.1403
349.1 K	0.1719
352.2 K	0.208

CN(C)C=O [dimethylformamide]
Settings	vapor or sublimation pressure [kPa]
276.3 K	0.1229
279.3 K	0.1498
281.2 K	0.1752
283.1 K	0.1994
285.3 K	0.2375
289.3 K	0.314
291.3 K	0.3569
293.3 K	0.4045
296.3 K	0.4849
299.5 K	0.5941
302.2 K	0.6949
305.2 K	0.847
